Data published in patent publication US10238661B2, “Fused, spirocyclic heteroaromatic compounds for the treatment of bacterial infections” (priority 2014, dated 2019).
≈ marks a conversion by molar mass, not a printed value. Where “and” joins values, the source holds several entries; their conditions need not be identical. Identical values can stand only once. Like-named read-outs stand apart in the source and are kept apart here.

Tests used:
Ureaplasma species [1] = conditions: Ureaplasma urealyticum ATCC 33175; CLSI M43-A acceptable QC range; cited from earlier work
Mycoplasma pneumoniae [2] = conditions: Mycoplasma pneumoniae ATCC 29342; CLSI M43-A acceptable QC range; cited from earlier work
Brucella abortus = experiment: microbe, parasite or virus in culture; type: cell-based
Mycoplasma genitalium = experiment: microbe, parasite or virus in culture; type: cell-based; conditions: for MIC: Mycoplasmoides genitalium
Mycoplasma pneumoniae [3] = experiment: Broth microdilution MIC assay (CLSI M43-A), M. pneumoniae; type: cell-based; conditions: for MIC: read-out: MIC
Ureaplasma species [4] = experiment: microbe, parasite or virus in culture; type: cell-based, Ureaplasma urealyticum, Ureaplasma parvum
Burkholderia mallei = experiment: microbe, parasite or virus in culture; type: cell-based
Brucella suis = experiment: microbe, parasite or virus in culture; type: cell-based
Mycoplasma hominis = experiment: microbe, parasite or virus in culture; type: cell-based
Yersinia pestis = experiment: microbe, parasite or virus in culture; type: cell-based; conditions: Yersinia pestis
Bacillus anthracis = experiment: microbe, parasite or virus in culture; type: cell-based; conditions: Bacillus anthracis
Francisella tularensis = experiment: microbe, parasite or virus in culture; type: cell-based; conditions: Francisella tularensis

In the case of `CC[C@H]1OC(=O)[C@H](C)[C@@H](O[C@H]2C[C@@](C)(OC)[C@@H](O)[C@H](C)O2)[C@H](C)[C@@H](O[C@@H]2O[C@H](C)C[C@H](N(C)C)[C@H]2O)[C@](C)(O)C[C@@H](C)C(=O)[C@H](C)[C@@H](O)[C@]1(C)O` [Erythromycin], the “MIC Limits for Quality Control Strain” value (Ureaplasma species [1]) is listed as 1 to 8 µg/mL and the “MIC Limits for Quality Control Strain” value (Mycoplasma pneumoniae [2]) is listed as 0.004 to 0.063 µg/mL.

In the case of `C[C@H]1COc2c(N3CCN(C)CC3)c(F)cc3c(=O)c(C(=O)O)cn1c23` [Levofloxacin], the MIC (Brucella abortus) is reported as 0.25 µg/mL (≈ 0.692 µM), the MIC (Brucella abortus; Brucella abortus) is reported as 0.5 µg/mL (≈ 1.38 µM) and the “MIC Range” value (Mycoplasma genitalium) is reported as 0.5 to 2 µg/mL. It also gave an MIC (Mycoplasma genitalium) of 0.5 µg/mL (≈ 1.38 µM), an MIC (Mycoplasma genitalium; ATCC33530) of 2 µg/mL (≈ 5.53 µM) and an MIC (Mycoplasma genitalium; ATCC49895) of 2 µg/mL (≈ 5.53 µM). For the same compound, the MIC (Mycoplasma genitalium; ATCC49899) was 2 µg/mL (≈ 5.53 µM), the MIC (Mycoplasma pneumoniae [3]; M. pneumoniae M-129 QC Strain ATCC 29342-B7) was 1 µg/mL (≈ 2.77 µM) and the MIC (Mycoplasma pneumoniae [3]; M. pneumoniae isolate 51494) was 1 µg/mL (≈ 2.77 µM). It also gave an MIC (Mycoplasma pneumoniae [3]; M. pneumoniae isolate 53706) of 0.5 µg/mL (≈ 1.38 µM), an MIC (Mycoplasma pneumoniae [3]; M. pneumoniae isolate 53938) of 1 µg/mL (≈ 2.77 µM) and an MIC (Mycoplasma pneumoniae [3]; M. pneumoniae isolate 54484, macrolide-resistant) of 0.5 µg/mL (≈ 1.38 µM). For the same compound, the MIC (Mycoplasma pneumoniae [3]; M. pneumoniae isolate 54506, macrolide-resistant) was 0.5 µg/mL (≈ 1.38 µM), the MIC (Mycoplasma pneumoniae [3]; M. pneumoniae isolate 55246) was 1 µg/mL (≈ 2.77 µM) and the MIC (Mycoplasma pneumoniae [3]; M. pneumoniae isolate 55612) was 0.5 µg/mL (≈ 1.38 µM). The MIC (Mycoplasma pneumoniae [3]; M. pneumoniae isolate 57807) was 0.5 µg/mL (≈ 1.38 µM), the MIC (Mycoplasma pneumoniae [3]; M. pneumoniae isolate 58188) was 0.5 µg/mL (≈ 1.38 µM) and the MIC (Mycoplasma pneumoniae [3]; M. pneumoniae isolate 58772) was 1 µg/mL (≈ 2.77 µM). It also gave an MIC (Mycoplasma pneumoniae [3]; M. pneumoniae isolate 59597) of 0.5 µg/mL (≈ 1.38 µM), an MIC (Mycoplasma pneumoniae [3]; M. pneumoniae isolate 59598) of 1 µg/mL (≈ 2.77 µM) and an MIC50 (Mycoplasma pneumoniae [3]; M. pneumoniae isolates, n = 12) of 0.5 µg/mL (≈ 1.38 µM). For the same compound, the MIC90 (Mycoplasma pneumoniae [3]; M. pneumoniae isolates, n = 12) was 1 µg/mL (≈ 2.77 µM), the “MIC Range” value (Mycoplasma pneumoniae [3]; M. pneumoniae isolates, n = 12) was 0.5 to 1 µg/mL and the “MIC Range” value (Ureaplasma species [4]) was 0.25 to 32 µg/mL. It also gave an MIC50 (Ureaplasma species [4]; Ureaplasma) of 1 µg/mL (≈ 2.77 µM), an MIC90 (Ureaplasma species [4]; Ureaplasma) of 8 µg/mL (≈ 22.1 µM) and an MIC (Ureaplasma species [4]; Ureaplasma, ATCC33175) of 1 µg/mL (≈ 2.77 µM). For the same compound, the MIC (Burkholderia mallei) was 0.5 µg/mL and 0.25 µg/mL, the MIC (Brucella suis) was 0.25 µg/mL (≈ 0.692 µM) and the MIC (Brucella suis; Brucella suis) was 0.5 µg/mL (≈ 1.38 µM). The “MIC Range” value (Mycoplasma hominis) was 0.063 to 0.25 µg/mL, the MIC50 (Mycoplasma hominis; Metamycoplasma hominis) was 0.125 µg/mL (≈ 0.346 µM) and the MIC90 (Mycoplasma hominis; Metamycoplasma hominis) was 0.25 µg/mL (≈ 0.692 µM). The MIC (Yersinia pestis) was at most 0.25 µg/mL, the MIC (Bacillus anthracis) was at most 0.25 µg/mL and the MIC (Francisella tularensis) was at most 0.125 µg/mL.

For `CC[C@H]1OC(=O)[C@H](C)C(=O)[C@H](C)[C@@H](O[C@@H]2O[C@H](C)C[C@H](N(C)C)[C@H]2O)[C@](C)(OC)C[C@@H](C)C(=O)[C@H](C)[C@H]2N(CCCCn3cnc(-c4cccnc4)c3)C(=O)O[C@]12C` [Telithromycin], the “MIC Limits for Quality Control Strain” value (Ureaplasma species [1]) is listed as 0.125 to 1 µg/mL.

For `CN(C)[C@@H]1C(O)=C(C(N)=O)C(=O)[C@@]2(O)C(O)=C3C(=O)c4c(O)cccc4[C@@](C)(O)[C@H]3C[C@@H]12` [Tetracycline], the “MICs for isolates with tetM” value (Mycoplasma hominis) was 32 µg/mL.
